Source: ChEMBL document CHEMBL3616370, “Pandalisines A and B, novel indolizidine alkaloids from the leaves of Pandanus utilis” (Bioorg Med Chem Lett, 2015)
Calls of active or inactive are those of the source.

Assays:
Type in all cases: functional, cell-based
[1] = test system: HepG2; test: Cytotoxicity against human HepG2 cells at 60 ug/ml after 72 hrs by MTT assay
[2] = test system: A549; test: Cytotoxicity against human A549 cells at 60 ug/ml after 72 hrs by MTT assay
[3] = test system: MDA-MB-231; test: Cytotoxicity against human MDA-MB-231 cells at 60 ug/ml after 72 hrs by MTT assay

Measured: Activity

CC1=C/C(=C2/CCCN3CCC[C@H]23)OC1=O
inactive: [1] | [2] | [3]

CC1=C/C(=C2\CCCN3CCC[C@H]23)OC1=O
inactive: [1] | [2] | [3]
